Where “and” joins values, the source holds several entries; their conditions need not be identical. Equal entries are not always repeated. Entries after “also recorded” stand apart in the source; their conditions may differ.
Columns and labels:
R55 mRNA = experiment: Rabbit ovary explant culture treated with EGF, R55 mRNA by Northern blot; type: cell-based; details: EGF 50 ng/ml
Excerpt: A method to culture pieces of ovaries from 14 d.pp. rabbits was developed, modeled after techniques used for ovaries from neonatal mice and bovine embryos. Tissue pieces (1-2 mm^3) from 14 d.pp. rabbit ovaries containing only primordial follicles were placed in cell culture inserts with 3.0 mm pores and cultured in 24-well plates with 300 microliters medium (50-50 blend of (a) F-12 Nutrient Mixture (Ham)(1×), liquid contains L-glutamine, and (b) Medium 199 (1×), liquid contains Earle's modified salts, 1.250 mg/L sodium bicarbonate, and L-glutamine.
Cultures were treated with mouse EGF (50 ng/ml) and analyzed for the level of expression of R55 mRNA. Treatment with EGF produced a 3-fold increase in amount of R55 mRNA (normalized to 28 S) as compared to controls incubated in medium alone (FIG. 3).
Ovaries were collected from 2 week old rabbits and the tissue mince into small pieces (-1 mm^3). These ovarian explants were then cultured for 6 days in the presence or absence of EGF (50 ng/ml). Total RNA was isolated and the relative amount of R55mRNA measured by Northern blot analysis. The result of 3 experiments were averaged and graphed. The level of P55 expression in the controls was defined as one. The level of expression of the epidermal growth factor treated samples was approximately 3 fold of that seen in the controls. […] This effect is due to an increase in the number of follicles being activated.

[1] = test system: antiserum to recombinant porcine EGF; details: radioimmunoassay with antiserum to recombinant porcine EGF; cited from earlier work
mini-pigs = details: minipig, in vivo; cited from earlier work
pig ZP proteins = experiment: Pig ovarian explant culture with EGF, ZP proteins by protein dot blot; type: cell-based; details: EGF 50 ng/ml, 6 days
Experimental: For this first experiment ovaries were collected form pigs at three to five weeks of age at which the pig ovaries are very immature. The ovaries were then minced into small pieces and grown in ovarian explant cultures with or without EGF (similar to what we have done with the rabbit ovaries). After 6 days of culture the tissue was collected and in this case proteins from these samples were isolated and solubilized. The amount of total zona pellucida protein in these samples was determined using an antibody we developed in guinea pigs against total zona pellucida proteins. The amount of porcine zona pellucida proteins in these samples were determined by dot blot analysis and quantified by optical density. The relative amount of zona pellucida protein is graphed for each sample (control and EGF treated 50 ng/ml). This was done for 3 replicates.

[2] = test system: pig ZP proteins in isolated primordial follicles; experiment: Isolated pig primordial follicles cultured with EGF, ZP proteins by protein dot blot; type: cell-based; details: EGF 50 ng/ml, 6 days
Experimental: FIG. 16 graphically presents the results of studying the effect of EGP on ZP expression in isolated primordial follicles. As in the previous experiment, ovaries were collected from immature pigs at 3 to 5 weeks of age. In this case the ovaries were minced and the follicles enzymatically separated from the connective tissues and isolated. The population of small primordial follicles were collected and grown in cell culture well inserts. These were cultured for six days in medium alone as control or in medium supplemented with 50 nanograms per ml of EGF. After 6 days of culture the follicles were collected and proteins isolated and solubilized. The amount of total zona pellucida protein in these samples was determined using an antibody developed in guinea pigs against total zona pellucida proteins. The amount of porcine zona pellucida proteins in these samples were determined by dot blot analysis and quantified by optical density. The relative amount of zona pellucida protein is graphed in FIG. 16 for each sample (control and EGF treated 50 ng/ml). This was done for 3 replicates. […] This is consistent with the hypothesis that EGF can stimulate activation of dormant primordial follicles as indicated by the expression of zona pellucida genes.

neonatal mouse ovaries = neonatal mouse ovaries cultured in vitro; cited from earlier work
FSH receptors = experiment: Expression of FSH receptors in granulosa cells from antral pig follicles; type: cell-based; details: EGF 50 ng/ml
[3] = test system: granulosa cells from primary pig follicles; experiment: DNA synthesis in granulosa cells from primary pig follicles; type: cell-based; details: EGF 50 ng/ml
young female pigs [4] = experiment: In vivo rec-pEGF by subcutaneous osmotic pumps, Group 2 pigs, body and organ weights at necropsy
mature rats = details: intravenously infused for a four-week period; cited from earlier work
young female pigs [5] = experiment: In vivo rec-pEGF by subcutaneous osmotic pumps, Group 1 pigs, histological evaluation of ovarian follicles; design: species or system pig
Experimental: Finally, FIG. 23 is a graph which confirms that in vivo administration of rec-pEGF to the Group 1 pigs, above, starting at 30 d.pp. and administered for fourteen consecutive days at a 540 μg/day dose by placement of subcutaneous osmotic pumps in each pig. Ovaries from a sub-set of Group 1 pigs were examined at 70 d.pp. when the first cohort of growing follicles is normally expected to be present. […] Data was obtained by counting the number of hematoxylin/eosin stained follicles in a counting frame (960×1400 μm), and only sections through the center of a follicle with the germinal vesicle present were used for the evaluation. Growing follicles were identified based upon the presence of at least one cuboidal layer of granulosa cells surrounding the oocyte.

young female pigs [6] = details: pig, in vivo
[7] = test system: Swiss 3T3 fibroblast cells; experiment: 3T3 fibroblast proliferation assay ([H3]-thymidine incorporation); type: cell-based; details: quiescent Swiss 3T3 cells
Experimental: In FIG. 21, the bioactivity of EGF was tested in a 3T3 fibroblast proliferation assay. EGF was added to quiescent Swiss 3T3 fibroblast cells and stimulation of fibroblast proliferation was measured by [H^3 ]-thymidine incorporation as an indicator of DNA synthesis.

[8] = average of ten largest follicles, 540 μg/day for fourteen days

## mouse EGF: EGF originally purified from the male mouse submaxillary gland; used in the rabbit ovary cultures (NSYPGCPSSYDGYCLNGGVCMHIESLDSYTCNCVIGYSGDRCQTRDLRWWELR; Epidermal growth factor; UniProt P01132 977-1029, looked up)
R55 mRNA; normalized to 28S, controls in medium alone
  increase in amount of R55 mRNA as compared to controls: 3 fold
[1]
  cross-reactivity: < 1%

## EGF: 53-residue polypeptide that is mitogenic for a variety of cell types both in vivo and in vitro
mini-pigs
  organ growth in mini-pigs: stimulate growth of heart, liver, and urinary tract
Pig ZP proteins; ovaries of pigs 3 to 5 weeks of age, single replicates
  Optical density of ZP proteins from ovarian explant cultures: 6355 and 6086 and 7193
Pig ZP proteins; versus control
  increase in the amount of zona pellucida protein in EGF treated ovarian explants: approximately a two fold increase
Pig ZP proteins; average of 3 replicates
  Optical density of ZP proteins from ovarian explant cultures, Avg. ZP: 6545
R55 mRNA; 6 days, ovarian explants of 2 week old rabbits, control = 1, single experiments
  ratio of R55 to 28S optical densities from Northern blots: 2.87 and 3.09 and 3.28
R55 mRNA; 6 days, average of 3 experiments, control = 1
  ratio of R55 to 28S optical densities from Northern blots, average: 3.08
R55 mRNA; Northern blot
  expression of R55 in primordial rabbit ovarian follicles (in words): increased expression of R55; also recorded: significant increases in expression of R55
[2]; follicles of pigs 3 to 5 weeks of age, single replicates
  Optical density of ZP proteins from cultured primordial follicles: 1815 and 371 and 1697
[2]; versus medium alone
  expression of zona pellucida proteins in primordial follicles (in words): significant increase
[2]; average of 3 replicates
  Optical density of ZP proteins from cultured primordial follicles, Avg. ZP: 1294
Neonatal mouse ovaries
  number of eggs recovered for in vitro maturation and fertilization: increased the number of eggs recovered
FSH receptors
  expression of FSH receptors in granulosa cells from antral pig follicles: stimulates
[3]
  DNA synthesis in granulosa cells from primary pig follicles: stimulates
Young female pigs [4]; Group 2, N = 3
  Avg. Daily Gain: 0.32 ± 0.06 kg/day
  Day 14 Weight: 4.6 ± 0.24 kg
  Day 70 Weight: 22.7 ± 3.40 kg
Mature rats
  number of corpora lutea (CL): increase in the number of corpora lutea
  ovarian weights: ovarian weights were increased

## rec-pEGF: recombinant porcine EGF expressed in a bacterial system, with 6X histidine tag and 19 vector amino acids
Young female pigs [5]; 540 μg/day for fourteen days from 30 d.pp., necropsy fourteen days post-treatment
  greater population of growing follicles than in control or non-treated groups: 70%
Young female pigs [5]; 540 μg/day for fourteen days from 30 d.pp., versus control or non-treated groups
  size of ovarian follicles (in words): larger ovarian follicles
Young female pigs [5]; 540 μg/day for fourteen days from 30 d.pp., versus control group and group administered nothing
  number of ovarian follicles at 70 d.pp. (in words): significantly increased
Young female pigs [5]; [8]
  follicle diameter greater than that of the control group: over 100%
  follicle diameter greater than that of the group given nothing: over 70%
Young female pigs [6]
  effect on organ weights, body weights and general pathology: lack of effect
[7]
  Stimulation of fibroblast proliferation: comparable to that of purified mouse EGF
Young female pigs [4]; 600 μg/day for fourteen days from 21 d.pp., tissues collected at 10 weeks, versus control and untreated group
  increase in size of the ovaries: ~100%

— US6300311A, “Regulation of vertebrate ovarian maturation and function using growth factors” (Texas Tech University, priority 1998, dated 2001)
